Data taken from ChEMBL document CHEMBL5465560, “Selectivity Literature for EUbOPEN Chemogenomic Library” (2024).
Values belong to the compound of their own block, whether it stands above or below them.

Assays:
[1] = target: T1, Phosphatidylinositol 3-kinase C2 domain-containing subunit gamma (Homo sapiens) (UniProt O75747); test: Selectivity interaction (KinomeScan (DiscoverX)) EUB0001049a PIK3C2G; details: at 1 µM
T1 sequence (whole entry): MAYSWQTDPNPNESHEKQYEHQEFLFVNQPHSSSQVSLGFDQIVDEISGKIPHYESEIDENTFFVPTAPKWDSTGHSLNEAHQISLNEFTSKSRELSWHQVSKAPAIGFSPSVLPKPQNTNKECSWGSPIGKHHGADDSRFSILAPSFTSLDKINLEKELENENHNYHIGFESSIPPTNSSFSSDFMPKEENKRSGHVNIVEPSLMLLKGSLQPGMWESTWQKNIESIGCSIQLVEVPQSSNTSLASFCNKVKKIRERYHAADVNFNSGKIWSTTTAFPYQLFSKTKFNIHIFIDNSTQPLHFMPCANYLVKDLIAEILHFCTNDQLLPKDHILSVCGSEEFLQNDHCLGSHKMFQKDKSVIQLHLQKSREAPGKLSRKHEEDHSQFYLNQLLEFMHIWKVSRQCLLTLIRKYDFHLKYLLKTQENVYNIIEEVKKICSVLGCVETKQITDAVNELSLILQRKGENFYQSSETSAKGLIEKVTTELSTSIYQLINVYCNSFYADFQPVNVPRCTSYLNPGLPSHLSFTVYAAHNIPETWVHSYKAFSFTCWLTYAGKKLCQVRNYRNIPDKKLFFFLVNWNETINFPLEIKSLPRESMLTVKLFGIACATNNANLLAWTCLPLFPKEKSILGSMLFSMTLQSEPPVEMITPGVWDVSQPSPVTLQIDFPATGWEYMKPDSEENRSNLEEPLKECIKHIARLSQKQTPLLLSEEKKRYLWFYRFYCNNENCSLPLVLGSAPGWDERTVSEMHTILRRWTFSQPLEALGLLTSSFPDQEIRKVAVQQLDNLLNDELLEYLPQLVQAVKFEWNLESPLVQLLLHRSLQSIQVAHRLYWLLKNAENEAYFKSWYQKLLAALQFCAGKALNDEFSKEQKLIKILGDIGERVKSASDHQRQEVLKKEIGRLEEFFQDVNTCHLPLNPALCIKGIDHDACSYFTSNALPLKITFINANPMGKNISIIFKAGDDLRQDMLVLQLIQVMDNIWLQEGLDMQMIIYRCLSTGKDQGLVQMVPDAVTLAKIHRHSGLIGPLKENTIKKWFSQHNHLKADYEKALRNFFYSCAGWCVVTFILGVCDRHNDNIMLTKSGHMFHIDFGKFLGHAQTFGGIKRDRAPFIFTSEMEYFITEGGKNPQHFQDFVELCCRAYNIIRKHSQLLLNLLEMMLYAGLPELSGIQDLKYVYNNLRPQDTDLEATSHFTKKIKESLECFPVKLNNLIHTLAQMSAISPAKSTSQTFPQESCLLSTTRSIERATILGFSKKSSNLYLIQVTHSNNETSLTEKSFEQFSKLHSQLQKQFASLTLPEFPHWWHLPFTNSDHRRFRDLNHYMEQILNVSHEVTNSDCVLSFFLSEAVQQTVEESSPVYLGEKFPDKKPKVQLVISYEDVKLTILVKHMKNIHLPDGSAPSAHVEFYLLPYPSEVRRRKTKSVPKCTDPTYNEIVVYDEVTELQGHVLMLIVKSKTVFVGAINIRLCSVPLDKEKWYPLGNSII

[2] = target: 5-hydroxytryptamine receptor 2B (Homo sapiens, UniProt P41595); test: Selectivity interaction (Serotonin 5HT2B Calcium flux assay, agonist mode ) EUB0000877a HTR2B
Sequence of 5-hydroxytryptamine receptor 2B (P41595 whole entry): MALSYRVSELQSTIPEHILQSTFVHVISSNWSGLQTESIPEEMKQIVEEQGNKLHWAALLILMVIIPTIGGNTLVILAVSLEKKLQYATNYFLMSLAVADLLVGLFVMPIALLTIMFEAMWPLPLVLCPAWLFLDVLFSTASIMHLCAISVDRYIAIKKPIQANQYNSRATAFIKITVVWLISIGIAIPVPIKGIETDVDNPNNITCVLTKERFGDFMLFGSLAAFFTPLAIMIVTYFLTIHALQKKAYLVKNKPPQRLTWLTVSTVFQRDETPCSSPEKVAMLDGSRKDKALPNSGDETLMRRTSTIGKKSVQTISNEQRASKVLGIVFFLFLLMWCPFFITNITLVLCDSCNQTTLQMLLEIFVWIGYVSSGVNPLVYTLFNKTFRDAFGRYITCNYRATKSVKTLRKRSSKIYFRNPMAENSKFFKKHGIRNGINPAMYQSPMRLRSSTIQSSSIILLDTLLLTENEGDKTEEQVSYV

[3] = target: Serine/threonine-protein kinase PAK 4 (Homo sapiens, UniProt O96013); test: Selectivity interaction (KinomeScan (DiscoverX)) EUB0000595a PAK4; details: at 10 µM
Sequence of Serine/threonine-protein kinase PAK 4 (O96013 whole entry, looked up): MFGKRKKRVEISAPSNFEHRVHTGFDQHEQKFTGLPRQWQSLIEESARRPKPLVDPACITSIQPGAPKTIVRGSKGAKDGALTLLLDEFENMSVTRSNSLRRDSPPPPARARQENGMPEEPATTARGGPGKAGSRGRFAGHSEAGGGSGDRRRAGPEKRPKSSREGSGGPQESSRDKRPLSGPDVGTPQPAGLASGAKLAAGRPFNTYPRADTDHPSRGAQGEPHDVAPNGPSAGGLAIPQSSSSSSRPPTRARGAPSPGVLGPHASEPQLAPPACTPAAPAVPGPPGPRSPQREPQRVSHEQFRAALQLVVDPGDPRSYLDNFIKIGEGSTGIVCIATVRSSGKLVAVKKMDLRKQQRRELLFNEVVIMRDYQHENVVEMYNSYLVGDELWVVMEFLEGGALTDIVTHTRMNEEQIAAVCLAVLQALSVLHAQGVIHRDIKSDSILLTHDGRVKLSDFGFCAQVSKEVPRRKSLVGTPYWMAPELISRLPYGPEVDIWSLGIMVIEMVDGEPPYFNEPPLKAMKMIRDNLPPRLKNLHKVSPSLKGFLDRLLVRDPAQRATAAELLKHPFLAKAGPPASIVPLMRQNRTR

[4] = target: Serine/threonine-protein kinase MRCK gamma (Homo sapiens) (UniProt Q6DT37); test: Selectivity interaction (KinomeScan (DiscoverX)) EUB0000092b CDC42BPG; details: at 10 µM
Sequence of Serine/threonine-protein kinase MRCK gamma (Homo sapiens) (Q6DT37 whole entry): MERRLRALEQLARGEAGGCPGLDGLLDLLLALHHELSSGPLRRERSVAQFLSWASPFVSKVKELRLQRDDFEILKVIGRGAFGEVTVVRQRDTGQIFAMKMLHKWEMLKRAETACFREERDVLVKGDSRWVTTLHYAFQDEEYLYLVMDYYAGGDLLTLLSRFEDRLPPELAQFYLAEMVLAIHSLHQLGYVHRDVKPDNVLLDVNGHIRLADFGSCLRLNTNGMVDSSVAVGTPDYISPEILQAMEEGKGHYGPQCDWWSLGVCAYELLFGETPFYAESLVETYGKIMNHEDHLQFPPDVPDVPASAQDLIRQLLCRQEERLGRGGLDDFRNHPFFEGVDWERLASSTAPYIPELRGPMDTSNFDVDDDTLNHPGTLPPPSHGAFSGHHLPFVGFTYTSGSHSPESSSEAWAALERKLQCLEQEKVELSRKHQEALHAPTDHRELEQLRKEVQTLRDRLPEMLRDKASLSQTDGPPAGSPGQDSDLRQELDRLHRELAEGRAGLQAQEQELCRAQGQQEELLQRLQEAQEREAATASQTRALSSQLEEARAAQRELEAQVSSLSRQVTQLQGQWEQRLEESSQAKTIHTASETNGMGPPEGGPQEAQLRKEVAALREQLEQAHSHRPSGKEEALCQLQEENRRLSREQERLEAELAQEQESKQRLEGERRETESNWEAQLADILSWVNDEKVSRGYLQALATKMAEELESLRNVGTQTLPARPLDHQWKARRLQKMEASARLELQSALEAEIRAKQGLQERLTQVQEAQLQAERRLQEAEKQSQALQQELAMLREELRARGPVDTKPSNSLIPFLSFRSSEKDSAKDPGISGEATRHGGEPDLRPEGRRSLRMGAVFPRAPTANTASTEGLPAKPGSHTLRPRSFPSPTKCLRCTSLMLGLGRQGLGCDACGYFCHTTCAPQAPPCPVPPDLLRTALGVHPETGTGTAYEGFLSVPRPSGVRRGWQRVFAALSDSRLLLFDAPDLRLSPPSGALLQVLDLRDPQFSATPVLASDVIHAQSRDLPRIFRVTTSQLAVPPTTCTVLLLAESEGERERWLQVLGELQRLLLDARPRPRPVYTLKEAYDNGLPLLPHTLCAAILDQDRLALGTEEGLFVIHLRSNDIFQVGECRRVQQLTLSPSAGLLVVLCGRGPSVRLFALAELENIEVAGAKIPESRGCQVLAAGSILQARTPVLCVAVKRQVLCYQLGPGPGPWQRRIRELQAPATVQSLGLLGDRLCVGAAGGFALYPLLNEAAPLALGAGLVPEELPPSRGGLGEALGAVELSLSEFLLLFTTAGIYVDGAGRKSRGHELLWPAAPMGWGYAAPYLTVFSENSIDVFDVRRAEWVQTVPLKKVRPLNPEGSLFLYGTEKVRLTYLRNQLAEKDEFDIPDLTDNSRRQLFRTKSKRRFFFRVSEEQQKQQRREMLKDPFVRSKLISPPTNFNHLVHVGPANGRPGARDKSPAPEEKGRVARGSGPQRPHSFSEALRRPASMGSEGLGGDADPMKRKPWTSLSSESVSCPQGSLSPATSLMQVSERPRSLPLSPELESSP

[5] = target: Serine/threonine-protein kinase WNK2 (Homo sapiens) (UniProt Q9Y3S1); test: Selectivity interaction (Upstate Kinase Profiler service (Millipore)) EUB0000056c WNK2; details: at 1 µM
Sequence of Serine/threonine-protein kinase WNK2 (Homo sapiens) (Q9Y3S1 whole entry): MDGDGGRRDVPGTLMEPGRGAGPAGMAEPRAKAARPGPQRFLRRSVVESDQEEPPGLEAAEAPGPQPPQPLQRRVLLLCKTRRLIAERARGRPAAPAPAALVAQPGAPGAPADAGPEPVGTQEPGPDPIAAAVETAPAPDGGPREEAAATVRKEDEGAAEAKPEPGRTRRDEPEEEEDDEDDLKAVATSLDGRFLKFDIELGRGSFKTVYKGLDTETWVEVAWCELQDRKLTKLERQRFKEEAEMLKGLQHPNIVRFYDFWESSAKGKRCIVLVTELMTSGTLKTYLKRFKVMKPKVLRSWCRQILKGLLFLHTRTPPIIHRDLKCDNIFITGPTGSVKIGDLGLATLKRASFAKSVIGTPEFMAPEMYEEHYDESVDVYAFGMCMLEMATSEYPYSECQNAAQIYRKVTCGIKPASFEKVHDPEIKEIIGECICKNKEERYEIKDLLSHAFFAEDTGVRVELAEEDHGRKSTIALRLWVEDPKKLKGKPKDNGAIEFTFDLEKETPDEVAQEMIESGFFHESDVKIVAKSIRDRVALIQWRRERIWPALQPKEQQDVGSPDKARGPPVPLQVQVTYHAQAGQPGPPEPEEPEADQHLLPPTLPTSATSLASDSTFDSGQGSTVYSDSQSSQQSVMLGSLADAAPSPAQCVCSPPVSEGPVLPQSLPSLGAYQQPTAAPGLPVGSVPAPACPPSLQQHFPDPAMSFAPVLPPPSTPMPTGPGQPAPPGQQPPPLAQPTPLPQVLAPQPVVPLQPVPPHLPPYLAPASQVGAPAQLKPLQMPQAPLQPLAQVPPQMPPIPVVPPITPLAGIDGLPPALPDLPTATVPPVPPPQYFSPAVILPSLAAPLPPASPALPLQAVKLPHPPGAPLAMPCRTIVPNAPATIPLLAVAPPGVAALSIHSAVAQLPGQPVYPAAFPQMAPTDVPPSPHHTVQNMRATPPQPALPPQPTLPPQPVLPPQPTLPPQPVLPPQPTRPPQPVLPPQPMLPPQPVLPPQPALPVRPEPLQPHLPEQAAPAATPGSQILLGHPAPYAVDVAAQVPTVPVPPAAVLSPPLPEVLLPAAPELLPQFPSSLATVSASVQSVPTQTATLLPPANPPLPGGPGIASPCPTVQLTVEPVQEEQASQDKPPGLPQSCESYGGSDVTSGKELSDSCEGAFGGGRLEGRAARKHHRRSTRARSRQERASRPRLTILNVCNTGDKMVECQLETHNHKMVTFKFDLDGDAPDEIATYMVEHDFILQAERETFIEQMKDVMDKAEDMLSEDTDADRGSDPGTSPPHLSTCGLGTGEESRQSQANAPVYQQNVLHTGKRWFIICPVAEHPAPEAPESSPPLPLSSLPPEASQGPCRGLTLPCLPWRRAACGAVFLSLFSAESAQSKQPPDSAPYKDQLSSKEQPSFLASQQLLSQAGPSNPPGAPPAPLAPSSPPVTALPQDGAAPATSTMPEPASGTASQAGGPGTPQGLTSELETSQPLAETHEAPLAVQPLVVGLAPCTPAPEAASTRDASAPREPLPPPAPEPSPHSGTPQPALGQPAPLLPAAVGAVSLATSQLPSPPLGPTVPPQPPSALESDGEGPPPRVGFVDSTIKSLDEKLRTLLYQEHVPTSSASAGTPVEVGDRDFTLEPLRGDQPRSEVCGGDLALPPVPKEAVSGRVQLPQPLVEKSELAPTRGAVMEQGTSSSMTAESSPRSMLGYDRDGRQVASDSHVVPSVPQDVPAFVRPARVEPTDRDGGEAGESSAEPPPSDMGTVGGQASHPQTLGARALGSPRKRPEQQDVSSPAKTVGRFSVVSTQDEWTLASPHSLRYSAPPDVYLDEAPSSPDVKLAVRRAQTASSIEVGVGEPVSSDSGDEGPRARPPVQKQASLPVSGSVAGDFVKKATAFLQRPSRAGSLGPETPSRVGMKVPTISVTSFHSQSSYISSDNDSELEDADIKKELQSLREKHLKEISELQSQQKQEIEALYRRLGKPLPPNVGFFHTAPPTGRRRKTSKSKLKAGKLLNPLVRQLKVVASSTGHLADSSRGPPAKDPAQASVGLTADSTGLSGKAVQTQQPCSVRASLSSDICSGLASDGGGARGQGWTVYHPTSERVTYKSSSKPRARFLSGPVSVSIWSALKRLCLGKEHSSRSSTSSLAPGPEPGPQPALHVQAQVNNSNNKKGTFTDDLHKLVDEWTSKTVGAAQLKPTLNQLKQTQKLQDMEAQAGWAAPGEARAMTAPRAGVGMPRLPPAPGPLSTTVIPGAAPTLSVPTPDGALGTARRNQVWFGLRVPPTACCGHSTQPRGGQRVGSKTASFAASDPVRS

[6] = target: T2, Serine/threonine-protein kinase D3 (Homo sapiens) (UniProt O94806); test: Selectivity interaction (SelectScreen profiling (Invitrogen)) EUB0000607a PRKD3; details: at 2 µM
T2 sequence (whole entry): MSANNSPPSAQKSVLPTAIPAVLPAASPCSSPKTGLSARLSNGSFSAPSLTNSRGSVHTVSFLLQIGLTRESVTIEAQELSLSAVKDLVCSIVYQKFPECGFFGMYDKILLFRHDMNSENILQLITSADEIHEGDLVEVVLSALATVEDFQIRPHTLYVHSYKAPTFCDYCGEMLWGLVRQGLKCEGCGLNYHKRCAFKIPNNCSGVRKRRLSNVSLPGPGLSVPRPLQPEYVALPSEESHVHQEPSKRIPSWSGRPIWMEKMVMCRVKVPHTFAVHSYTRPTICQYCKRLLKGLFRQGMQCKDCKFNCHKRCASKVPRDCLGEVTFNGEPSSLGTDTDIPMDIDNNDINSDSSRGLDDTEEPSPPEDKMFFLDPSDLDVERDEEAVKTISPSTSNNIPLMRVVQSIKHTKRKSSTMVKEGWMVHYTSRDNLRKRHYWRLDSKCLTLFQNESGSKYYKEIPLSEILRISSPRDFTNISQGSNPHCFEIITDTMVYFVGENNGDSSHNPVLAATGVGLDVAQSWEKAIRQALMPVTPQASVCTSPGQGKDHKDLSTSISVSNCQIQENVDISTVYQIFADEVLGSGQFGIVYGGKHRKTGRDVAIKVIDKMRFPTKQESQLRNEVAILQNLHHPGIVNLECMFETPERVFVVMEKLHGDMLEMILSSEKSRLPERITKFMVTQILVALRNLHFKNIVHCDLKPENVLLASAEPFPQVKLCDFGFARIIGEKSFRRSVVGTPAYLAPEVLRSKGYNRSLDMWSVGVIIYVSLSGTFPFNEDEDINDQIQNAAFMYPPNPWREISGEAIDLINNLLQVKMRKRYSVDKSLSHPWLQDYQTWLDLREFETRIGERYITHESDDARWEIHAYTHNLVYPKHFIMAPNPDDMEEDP

Structure (SMILES): COc1cc(Nc2nc(C)cc(-c3cnn4nc(OC)ccc34)n2)cc(C(F)(F)F)c1
% of control [1]: 89%

IC50 [2]: > 30 µM
Structure (SMILES): CCC(=O)N1CC[C@H](Nc2ncnc3c2CN(c2cnc(OC)c(C(F)(F)F)c2)CC3)C1 [LENIOLISIB]

Structure (SMILES): COCC(=O)NC/C=C/c1ccc2ncnc(Nc3ccc(Oc4ccc(C)nc4)c(C)c3)c2c1 [CP-724714]
% of control [3]: 87%

Structure (SMILES): CCC(=O)N1CCN(c2ccc(-n3c(=O)ccc4cnc5ccc(-c6cnc7ccccc7c6)cc5c43)cc2C(F)(F)F)CC1
% of control [4]: 1.6%

% of inhibition [5]: 1%
Structure (SMILES): Cc1ccc(-c2ccc3c(ccc4sc5c(c43)NC[C@@H](C)NC5=O)n2)cn1

Structure (SMILES): CNC(=O)Nc1ccc(-c2nc(N3CC4CCC(C3)O4)c3cnn(C4CCC5(CC4)OCCO5)c3n2)cc1
% of inhibition [6]: 4%
